Results as given in patent US8846699B2, “Quinazoline derivatives as a multiplex inhibitor and method for the preparation thereof” (Hanmi Pharm. Co., Ltd., priority 2005, dated 2014).

Legend:
[1] = target: VEGFR2 (KDR) (Homo sapiens (Human), UniProt P35968); assay: VEGFR2 (KDR) enzyme assay, fluorescence polarization; type: biochemical; conditions: 5 μM ATP, poly(Glu, Tyr) substrate
Summary of the method: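 Buffer: 20 mM HEPES pH 7.4 with 5 mM MgCl2, 2 mM MnCl2 and 50 μM Na3VO4. Compound (0.0001–10 μM) was premixed 10 min with VEGFR2 (200 ng/10 μl), then poly(Glu,Tyr) substrate (10 ng/ml) and 5 μM ATP were added for 1 h at room temperature. EDTA-quenched samples were read by FP after 30 min with antibody and tracer.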

[2] = system: colon and rectal cancer cell line, SW-620; assay: Inhibitory effect on growth of cancer cell line SW-620, SRB; type: cell-based; conditions: not having overexpressed EGFR and EGFR2
Summary of the method: (§1)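 Growth inhibition was measured by sulforhodamine-B staining (absorbance 570 nm) of TCA-fixed cells after 72 h compound exposure at 37 °C, 5% CO2. Test concentrations ran from 10 μM in 10-fold steps to 10^−4, with DMSO below 1%, in 10% FBS DMEM.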

[3] = system: breast cancer cell line, SK-Br3; assay: Inhibitory effect on growth of cancer cell line SK-Br3, SRB; type: cell-based; conditions: overexpressed EGFR2 (HER-2)
Summary of the method: as §1

[4] = system: Human Umbilical Vein Endothelial Cell (HUVEC); assay: Inhibitory effect on growth of human umbilical vein endothelial cell (HUVEC), MTS; type: cell-based; conditions: 10 ng/ml VEGF, absorbance 490 nm
[5] = system: skin cancer cell line, A431; assay: Inhibitory effect on growth of cancer cell line A431, SRB; type: cell-based; conditions: overexpressed EGFR1 (HER-1)
Summary of the method: as §1

[6] = target: EGFR1 (HER-1) (Homo sapiens (Human), UniProt P00533); assay: EGFR1 (HER-1) enzyme assay, fluorescence polarization; type: biochemical; conditions: 100 μM ATP, poly(Glu, Tyr) substrate

Chain of VEGFR2 (KDR) (P35968 20-1356): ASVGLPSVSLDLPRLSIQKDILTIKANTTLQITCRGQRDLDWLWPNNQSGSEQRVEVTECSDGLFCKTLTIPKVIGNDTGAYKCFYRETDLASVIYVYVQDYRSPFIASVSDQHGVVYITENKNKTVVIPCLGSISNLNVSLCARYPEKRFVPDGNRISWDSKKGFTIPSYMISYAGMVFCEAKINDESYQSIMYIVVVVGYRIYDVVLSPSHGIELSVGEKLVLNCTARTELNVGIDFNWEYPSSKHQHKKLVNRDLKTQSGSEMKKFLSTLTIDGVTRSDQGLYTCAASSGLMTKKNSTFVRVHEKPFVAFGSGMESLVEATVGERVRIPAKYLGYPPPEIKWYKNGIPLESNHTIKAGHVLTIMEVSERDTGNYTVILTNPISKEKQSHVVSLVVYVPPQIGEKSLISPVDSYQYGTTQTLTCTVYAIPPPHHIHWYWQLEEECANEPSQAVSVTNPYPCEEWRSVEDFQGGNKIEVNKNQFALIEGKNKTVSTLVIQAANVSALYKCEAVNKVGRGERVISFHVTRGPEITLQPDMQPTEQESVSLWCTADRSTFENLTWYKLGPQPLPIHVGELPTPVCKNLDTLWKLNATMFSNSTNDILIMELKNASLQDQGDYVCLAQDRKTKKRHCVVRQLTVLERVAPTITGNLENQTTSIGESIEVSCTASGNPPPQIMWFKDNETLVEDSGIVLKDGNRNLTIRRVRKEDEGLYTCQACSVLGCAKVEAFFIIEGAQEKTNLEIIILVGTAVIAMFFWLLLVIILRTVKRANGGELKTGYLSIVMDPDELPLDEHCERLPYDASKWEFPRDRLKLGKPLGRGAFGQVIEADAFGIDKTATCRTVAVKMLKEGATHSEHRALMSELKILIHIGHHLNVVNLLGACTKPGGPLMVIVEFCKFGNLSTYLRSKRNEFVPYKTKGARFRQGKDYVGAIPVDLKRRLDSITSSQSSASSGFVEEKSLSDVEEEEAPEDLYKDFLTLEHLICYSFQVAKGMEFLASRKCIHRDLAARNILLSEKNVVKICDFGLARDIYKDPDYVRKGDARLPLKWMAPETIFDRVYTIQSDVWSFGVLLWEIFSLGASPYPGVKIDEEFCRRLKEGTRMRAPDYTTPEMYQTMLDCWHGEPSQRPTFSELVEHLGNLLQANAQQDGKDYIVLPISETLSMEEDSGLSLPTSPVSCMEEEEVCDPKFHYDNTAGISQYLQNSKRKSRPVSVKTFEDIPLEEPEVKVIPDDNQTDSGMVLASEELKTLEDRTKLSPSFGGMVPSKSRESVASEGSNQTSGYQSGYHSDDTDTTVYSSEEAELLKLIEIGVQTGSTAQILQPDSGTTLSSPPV

IC50 [1] [nM]	IC50 ([2]; Homo sapiens, 72 h) [nM]	IC50 ([3]; Homo sapiens, SK-BR-3, 72 h) [nM]	IC50 ([5]; Homo sapiens, A-431, 72 h) [nM]	IC50 [6] [nM]	Molecule	IC50 ([4]; Homo sapiens, 96 h) [nM]	IC50 ([2]; 72 hours) [nM]	IC50 ([3]; 72 hours) [nM]	IC50 ([4]; 96 hours) [nM]	IC50 ([5]; 72 hours) [nM]
172	9590	62	18	13	C=CC(=O)Nc1cc2c(Nc3cc(Cl)c(Br)cc3F)ncnc2cc1OCCNC(=O)CC [Example 134, N-[4-(4-bromo-5-chloro-2-fluoro-phenylamino)-7-(2-propionylamino-ethoxy)-quinazolin-6-yl]-acrylamide]	1060				
268	10000	126	181	175	C=CC(=O)Nc1cc2c(Nc3c(F)cc(Br)cc3F)ncnc2cc1OCCNC(=O)CN(C)C [Example 123, N-[4-(4-bromo-2,6-difluorophenylamino)-7-{2-[2-(dimethylamino)-acetamido]-ethoxy}-quinazolin-6-yl]-acrylamide]	328				
128	9100	67	35	26	C=CC(=O)Nc1cc2c(Nc3ccc(Br)c(Cl)c3F)ncnc2cc1OCCNC(=O)NCCC [Example 169, N-{4-(4-bromo-3-chloro-2-fluoro-phenylamino)-7-[2-(3-propyl-ureido)-ethoxy]-quinazolin-6-yl}-acrylamide]	233				
500	9680	233	76	23	C=CC(=O)Nc1cc2c(Nc3ccc(Br)cc3F)ncnc2cc1OCCNC(=O)C(F)(F)F [Example 28, N-[4-(4-bromo-2-fluoro-phenylamino)-7-[2-(2,2,2-trifluoro-acetylamino)-ethoxy]-quinazolin-6-yl]-acrylamide]	977				
249	9550	110	35	24	C=CC(=O)Nc1cc2c(Nc3ccc(Br)cc3F)ncnc2cc1OCC(C)NC(=O)CCN(CC)CC (stereo not drawn) [Example 155, N-{4-(4-bromo-2-fluoro-phenylamino)-7-[2-(3-diethylamino-propionylamino)-propoxy]-quinazolin-6-yl}-acrylamide]	314				
657	2830	109	48	40	C=CC(=O)Nc1cc2c(Nc3cc(Cl)c(Cl)cc3F)ncnc2cc1OCCNC(=O)CS(C)(=O)=O [Example 139, N-{4-(4,5-dichloro-2-fluoro-phenylamino)-7-[2-(2-methanesulfonyl-acetylamino)-ethoxy]-quinazolin-6-yl}-acrylamide]	682				
500	8460	1350	168	56	C=CC(=O)Nc1cc2c(Nc3ccc(Br)cc3F)ncnc2cc1OCc1ccncc1 [Example 6, N-[4-(4-bromo-2-fluoro-phenylamino)-7-(pyridin-4-ylmethoxy)-quinazolin-6-yl]-acrylamide]	450				
330	9570	734	118	68	C=CC(=O)Nc1cc2c(Nc3ccc(Br)cc3F)ncnc2cc1OCCCNC(=O)CS(C)(=O)=O [Example 15, N-{4-(4-bromo-2-fluoro-phenylamino)-7-[3-(2-methanesulfonyl-acetylamino)-propoxy]-quinazolin-6-yl}-acrylamide]	150				
523	2530	55	93	90	C=CCCOc1cc2ncnc(Nc3ccc(Br)cc3F)c2cc1NC(=O)C=C [Example 31, N-[4-(4-bromo-2-fluoro-phenylamino)-7-but-3-enyloxy-quinazolin-6-yl]-acrylamide]	686				
545	10000	145	46	4	C=CC(=O)Nc1cc2c(Nc3ccc(Br)cc3F)ncnc2cc1OCCN [Example 29, N-[7-(2-amino-ethoxy)-4-(4-bromo-2-fluoro-phenylamino)-quinazolin-6-yl]-acrylamide]	951				

Further lines, the molecule ahead of its results:

Molecule	IC50 [1] [nM]	IC50 ([2]; Homo sapiens, 72 h) [nM]	IC50 ([3]; Homo sapiens, SK-BR-3, 72 h) [nM]	IC50 ([5]; Homo sapiens, A-431, 72 h) [nM]	IC50 [6] [nM]	IC50 ([4]; Homo sapiens, 96 h) [nM]	IC50 ([2]; 72 hours) [nM]	IC50 ([3]; 72 hours) [nM]	IC50 ([4]; 96 hours) [nM]	IC50 ([5]; 72 hours) [nM]
C=CC(=O)Nc1cc2c(Nc3ccc(Br)cc3F)ncnc2cc1OCCCCNC(C)=O [Example 20, N-[7-(4-acetylamino-butoxy)-4-(4-bromo-2-fluoro-phenylamino)-quinazolin-6-yl]-acrylamide]	545	10000	1100	45	10	682				
C=CC(=O)Nc1cc2c(Nc3ccc(Br)cc3F)ncnc2cc1OCCN(C)C(C)=O [Example 42, N-[7-[2-(acetyl-methyl-amino)-ethoxy]-4-(4-bromo-2-fluoro-phenylamino)-quinazolin-6-yl]-acrylamide]	687	9560	142	63	59	786				
C=CC(=O)Nc1cc2c(Nc3ccc(Br)cc3F)ncnc2cc1OCCNC(=O)NCCC [Example 34, N-{4-(4-bromo-2-fluoro-phenylamino)-7-[2-(3-propyl-ureido)-ethoxy]-quinazolin-6-yl}-acrylamide]	458	2540	67	35	26	678				
C=CC(=O)Nc1cc2c(Nc3ccc(Br)cc3F)ncnc2cc1OCCOC [Example 32, N-[4-(4-bromo-2-fluoro-phenylamino)-7-(2-methoxy-ethoxy)-quinazolin-6-yl]-acrylamide]	259	4550	198	31	25	350				
C=CC(=O)Nc1cc2c(Nc3cc(Cl)c(Br)cc3F)ncnc2cc1OCCNC(C)=O [Example 133, N-[7-(2-acetylamino-ethoxy)-4-(4-bromo-5-chloro-2-fluoro-phenylamino)-quinazolin-6-yl]-acrylamide]	419	2320	64	17	15	429				
C=CC(=O)Nc1cc2c(Nc3ccc(Br)cc3F)ncnc2cc1OCC1CCN(C(=O)CS(C)(=O)=O)CC1 [Example 3, N-{4-(4-bromo-2-fluoro-phenylamino)-7-[1-(2-methanesulfonyl-acetyl)-piperidin-4-ylmethoxy]-quinazolin-6-yl}-acrylamide]	108	6310	216	48	26	90				
C=CC(=O)Nc1cc2c(Nc3ccc(Br)cc3F)ncnc2cc1OCC1CCN(C(=O)C(F)(F)F)CC1 [Example 2, N-{4-(4-bromo-2-fluoro-phenylamino)-7-[1-(2,2,2-trifluoro-acetyl)-piperidin-4-ylmethoxy]-quinazolin-6-yl}-acrylamide]	250	4580	240	82	47	96				
C=CC(=O)Nc1cc2c(Nc3ccc(Br)cc3F)ncnc2cc1OCCNC(=O)C=NOC [Example 73, N-{4-(4-bromo-2-fluoro-phenylamino)-7-[2-(2-methoxyimino-acetylamino)-ethoxy]-quinazolin-6-yl}-acrylamide]	668	10000	589	365	256	634				
C=CC(=O)Nc1cc2c(Nc3ccc(Br)cc3F)ncnc2cc1OCCNC(=O)CN1CC=CC1 [Example 108, N-{4-(4-bromo-2-fluoro-phenylamino)-7-[2-(2-2,5-dihydro-pyrrol-1-yl-acetylamino)-ethoxy]-quinazolin-6-yl}-acrylamide]	486	2950	103	41	32	497				
N-{2-[6-acryloylamino-4-(4-bromo-2-fluoro-phenylamino)-quinazolin-7-yloxy]-ethyl}-butylamide [Example 51]	954				32		10000	194	987	33
C=CC(=O)Nc1cc2c(Nc3ccc(Br)c(Cl)c3F)ncnc2cc1OCC(C)NC(=O)CN(C)C (stereo not drawn) [Example 157]	687				88		8360	165	752	95
C=CC(=O)Nc1cc2c(Nc3ccc(Br)cc3F)ncnc2cc1OCCNC(=O)N1CCN(C)CC1 [Example 96, 4-methyl-piperazine-1-carboxylic acid {2-[6-acryloylamino-4-(4-bromo-2-fluoro-phenylamino)-quinazolin-7-yloxy]-ethyl}-amide]	358	10000	239	21	13	352				
